Assay results as given in patent US20030148954A1, “Agents and methods for modulating activator protein-1-mediated cellular processes” (Wisconsin Alumni Research Foundation, priority 2001, published 2003).

Columns and labels:
Format in all cases: cell-based, human
IL-8 = assay: Northern blotting of IL-8 transcripts in K562-Babe and K562-NIC-1 cells; conditions: 5 nM TPA 12 h, stably transfected NIC-1
Protocol: (§1) Stable Transfection—K562 cells were stably transfected by electroporation with a Bio-Rad Gene pulser electroporator. Cells (5×10^6) were washed with ice-cold PBS, resuspended in 0.5 ml of ice-cold PBS, mixed with 5 μg linearized plasmid DNA, and subjected to electroporation (960 microfarad; 220 V) in a 0.4 cm-wide electroporation cuvette (BTX). pBabe and pNIC-1 were linearized with NotI. Cells were then added to 20 ml of complete IMEM, grown for 48 h, and diluted in complete IMEM containing 1.5 μg/ml puromycin (pools of K562-Babe and K562-NIC-1 cells). Stably transfected cells were analyzed for erythroid differentiation as soon as the pools were generated by benzidine staining to reduce the probability of phenotypic changes that may result from prolonged growth.
(§2) Northern Blotting—Total RNA from K562-Babe and K562-NIC-1 cells was extracted with Triazol (Life Technologies, Inc.). Ten μg of RNA per sample was electrophoresed on a 1% agarose, 6.6% formaldehyde gel and then transferred overnight to a Magnacharge nylon membrane (Osmonics). RNA was cross-linked to the membrane by UV irradiation. Membranes were prehybridized for 30 min at 60° C. in ExpressHyb hybridization solution (Clontech). […] Radioactivity was quantitated by PhosphorImager analysis with ImageQuant software (Molecular Dynamics).

MMP1 = assay: Northern blotting of MMP1 transcripts in K562-Babe and K562-NIC-1 cells; conditions: 5 nM TPA 12 h, stably transfected NIC-1
Protocol: as §1, §2

JNK = assay: Western blot with phospho-specific antibodies, JNK; conditions: K562-NIC-1 versus K562-Babe, 5 nM TPA 30 min
Protocol: as §1
To measure the phosphorylation state of components of the MAPK pathway, K562-Babe and K562-NIC-1 cells (1×10^6) were collected after treatment with 5 nM TPA or DMSO for 30 min. Cells were washed once with ice-cold PBS, cell pellets were resuspended in 30 μl ice-cold PBS and were immediately boiled in 70 μl SDS sample buffer for 10 min. Proteins (10 μl) were resolved by SDS-PAGE on a 10% acrylamide gel and transferred to Immobilon P membrane (Millipore). […] Antigen-antibody complexes were detected with ECL Plus™ (Amersham Life Science) according to manufacturer's instructions.

## NIC-1: constitutively active Notch-1 intracellular domain, amino acids 1759-2556 of human Notch-1 with carboxyl-terminal Myc tag, expressed from pBabe-NIC-1
IL-8
  TPA induction of IL-8 transcript levels in K562-NIC-1 versus K562-Babe cells: considerably lower
MMP1
  TPA induction of MMP1 transcript levels in K562-NIC-1 versus K562-Babe cells: considerably lower
JNK
  effect on TPA-induced or basal phosphorylation of JNK: did not affect
